Like-named read-outs stand apart in the source and are kept apart here.
What was measured:
[1] = target: T1, unphosphorylated VEGF-R2Δ50 (FLVK) (Homo sapiens, UniProt P35968, DEL940-989/E990V); experiment: VEGF-R2 coupled spectrophotometric assay, unphosphorylated construct (FLVK); format: biochemical;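 also: Baculovirus-expressed cytosolic kinase domain, ADP formation linked via pyruvate kinase and lactate dehydrogenase to NADH oxidation, read as falling absorbance at 340 nm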
T1 construct: VEGF-R2Δ50 contains residues 806-939 and 990-1171; made in house; host or cells: baculovirus/insect cells
T1 sequence (P35968 with tags, fused parts or gaps DEL940-989/E990V limits assumed): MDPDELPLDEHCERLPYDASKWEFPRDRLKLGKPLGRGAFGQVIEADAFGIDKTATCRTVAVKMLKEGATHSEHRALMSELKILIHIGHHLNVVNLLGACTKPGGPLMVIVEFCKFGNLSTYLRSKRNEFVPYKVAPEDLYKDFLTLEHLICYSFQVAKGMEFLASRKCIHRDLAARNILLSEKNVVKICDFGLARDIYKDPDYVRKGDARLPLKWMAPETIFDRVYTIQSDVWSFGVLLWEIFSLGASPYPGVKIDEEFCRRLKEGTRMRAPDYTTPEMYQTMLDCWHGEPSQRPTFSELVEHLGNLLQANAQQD

LCK tyrosine kinase = target: T2, LCK tyrosine kinase (Homo sapiens, UniProt P06239, C224D/P223M); experiment: LCK spectrophotometric assay; format: biochemical; conditions: for Ki: read-out: LCK-P Ki;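 as to all read-outs here: recombinant LCK kinase activity on poly(E4Y1), ADP formation coupled through PK/LDH to NADH oxidation, followed as absorbance loss at 340 nm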
T2 construct: starting from amino acid residue 223 to the end of the protein at residue 509; made in house; host or cells: insect cells
T2 sequence (P06239 223-509 P223M/C224D): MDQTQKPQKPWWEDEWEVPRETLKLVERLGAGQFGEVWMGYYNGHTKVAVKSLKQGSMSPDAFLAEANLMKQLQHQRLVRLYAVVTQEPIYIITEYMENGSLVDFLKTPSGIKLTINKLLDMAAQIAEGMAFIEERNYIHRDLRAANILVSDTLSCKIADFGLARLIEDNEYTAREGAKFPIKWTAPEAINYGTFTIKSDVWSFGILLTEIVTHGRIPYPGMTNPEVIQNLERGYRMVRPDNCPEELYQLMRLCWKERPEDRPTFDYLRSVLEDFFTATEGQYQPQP

[2] = target: T3, FGF-R1 intracellular kinase domain (Homo sapiens, UniProt P11362, C488A/C584S/L457V); experiment: FGF-R spectrophotometric assay; format: biochemical; conditions: for Ki: read-out: FGF-P Ki;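 as to all read-outs here: coupled PK/LDH enzyme assay: ADP from kinase phosphoryl transfer drives NADH oxidation, read as absorbance decrease at 340 nm, with 2 mM ATP and poly(E4Y1) substrate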
T3 construct: starting from the endogenous methionine residue 456 to glutamate 766; made in house; host or cells: baculovirus expression system
T3 sequence (P11362 456-766 L457V/C488A/C584S): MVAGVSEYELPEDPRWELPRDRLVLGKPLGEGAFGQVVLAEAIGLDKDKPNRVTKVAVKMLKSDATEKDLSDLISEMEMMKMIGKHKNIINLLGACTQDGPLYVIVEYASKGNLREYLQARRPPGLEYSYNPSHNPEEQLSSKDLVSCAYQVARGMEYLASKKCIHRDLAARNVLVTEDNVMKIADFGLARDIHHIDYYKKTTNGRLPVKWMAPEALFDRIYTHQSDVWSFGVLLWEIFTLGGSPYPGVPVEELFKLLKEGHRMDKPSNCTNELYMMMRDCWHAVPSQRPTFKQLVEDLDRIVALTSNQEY

[3] = test system: human umbilical vein endothelial cells (HUVEC); experiment: HUVEC proliferation assay (VEGF-stimulated, MTT); format: cell-based; conditions: Homo sapiens, HUVEC
How it was run: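 Proliferation measured by MTT reduction (4 h exposure, absorbance at 595) 72 hours after VEGF stimulation (final 6 ng/ml). Compound added to 24 h-starved HUVEC in F12K with 1% FBS and 0.1% final DMSO, one hour before the growth factor.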

[4] = test system: lung cancer cells (line MV522); experiment: Cancer cell proliferation (MV522) assay (MTT); format: cell-based; conditions: MV522
How it was run: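 Proliferation was read by MTT reduction 72 h after compound addition, in a 4-day protocol with no starvation step. Two thousand MV522 cells were seeded in RPMI1640 with 10% FBS and 2 mM glutamine and given 1 day to attach before dosing.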

CDK2/Cyclin A complex = CDK2/Cyclin A complex (Homo sapiens, UniProt P24941); experiment: CDK2/Cyclin A assay ([32P]ATP incorporation into Rb fragment); format: biochemical; conditions: read-out: CDK2 percent inhibition
Description: CDK2 was purified using published methodology (Rosenblatt et al., J. Mol. Biol., 230, 1317-1319 (1993)) from insect cells that had been infected with a baculovirus expression vector. Cyclin A was purified from E. coli cells expressing full-length recombinant cyclin A, and a truncated cyclin A construct was generated by limited proteolysis and purified as described previously (Jeffrey et al., Nature, 376, 313-320 (1995)).
Cyclin-dependent kinase activity was measured by quantifying the enzyme-catalyzed, time-dependent incorporation of radioactive phosphate from [^32P]ATP into a recombinant fragment of the retinoblastoma protein. Unless noted otherwise, assays were performed in 96-well plates in a total volume of 50 μL, in the presence of 10 mM HEPES (N-[2-hydroxyethyl]piperazine-N′-[2-ethanesulfonic acid]) (pH 7.4), 10 mM MgCl2, 25 μM adenosine triphosphate (ATP), 1 mg/mL ovalbumin, 5 μg/mL leupeptin, 1 mM dithiothreitol, 10 mM β-glycerophosphate, 0.1 mM sodium vanadate, 1 mM sodium fluoride, 2.5 mM ethylene glycol-bis(β-aminoethyl ether)-N,N,N′N′-tetraacetic acid (EGTA), 2% (v/v) dimethylsulfoxide, and 0.03-0.2 μCi [^32P]ATP. The substrate (0.3-0.5 μg) was purified recombinant retinoblastoma protein fragment (Rb) (residues 386-928 of the native retinoblastoma protein; 62.3 kDa, containing the majority of the phosphorylation sites found in the native 106-kDa protein, as well as a tag of six histidine residues for ease of purification). Reactions were initiated with CDK2 (150 nM CDK2/Cyclin A complex) or CDK4 (50 nM CDK4/Cyclin D3 complex), incubated at 30° C., and terminated after 20 minutes by the addition of ethylenediaminetetraacetic acid (EDTA) to 250 mM. The phosphorylated substrate was then captured on a nitrocellulose membrane using a 96-well filtration manifold, and unincorporated radioactivity was removed by repeated washing with 0.85% phosphoric acid. Radioactivity was quantified by exposing the dried nitrocellulose membranes to a phosphorimager. Apparent Ki values were measured by assaying enzyme activity in the presence of different compound concentrations and subtracting the background radioactivity measured in the absence of enzyme. The kinetic parameters (kcat, Km for ATP) were measured for each enzyme under the usual assay conditions by determining the dependence of initial rates on ATP concentration. The data were fit to an equation for competitive inhibition using Kaleidagraph (Synergy Software), or were fit to an equation for competitive tight-binding inhibition using the software KineTic (BioKin, Ltd.). Measured Ki values for known inhibitors against CDK4 and CDK2 agreed with published IC50 values. […]

[5] = with albumin, read-out: Huvec + Albumin IC50

Ki [1] [nM]	Ki (LCK tyrosine kinase) [nM]	Ki [2] [nM]	IC50 [4] [nM]	inhibition at 1 µM ([2]; @ 1 μM, read-out: FGF-P percent inhibition) [%]	inhibition at 1 µM (CDK2/Cyclin A complex) [%]	inhibition at 5 µM (LCK tyrosine kinase; @ 5 μM, read-out: LCK-P percent inhibition) [%]	inhibition at 5 µM ([2]; at 5 μM, read-out: FGF-P percent inhibition) [%]	inhibition at 100 µM (CDK2/Cyclin A complex; @ 100 μM) [%]	Compound	IC50 ([3]; read-out: HUVEC IC50) [nM]	IC50 [3, 5] [nM]
0.11	2.5	19	5600	–	–	–	–	–	O=C(Nc1ccc(N2CCCC2)c(C(F)(F)F)c1)c1cccc(CCc2cc(Nc3cccnc3)n[nH]2)c1 [Example G-11]	4.4	64
1.3	160	–	> 10000	12	18	–	–	–	CC(=O)Nc1ccc(COc2cccc(C(=O)Nc3ccc4nc(C)ccc4c3)c2)cn1 [Example N-1, 3-(6-Acetylaminopyridin-3-yl)methoxy-N-(2-methyl-quinolin-6-yl)-benzamide]	38	> 1000
0.23	57.7	26	4600	–	12	–	–	–	Cc1cc(NC(=O)c2ccc(F)c(OCc3cncc4ccccc34)c2)ccc1C(C)C [Example K-10, N-(4-Isopropyl-3-methyl-phenyl)-4-fluoro-3-(Isoquinolin-4-yl)methoxy-benzamide]	12	–
1.4	–	–	> 10000	–	–	85	36	23	Cc1ccc2cc(NC(=O)c3cccc(SCc4cc(Nc5ccccc5)n[nH]4)c3)ccc2n1 [Example E-1, N-(2-methyl-quinolin-6-yl)-3-[{5-(phenylamino)-2-H-pyrazol-3-yl}methylsulfanyl]benzamide]	170	> 1000

Reference: patent publication US6635641B2 (Agouron Pharmaceuticals, Inc., priority 2000, dated 2003)
